In patent US8815934B2, “2-Phenyl-1-[4-(2-Aminoethoxy)-Benzyl]-Indole and estrogen formulations” (Wyeth LLC, priority 1998, dated 2014):

Test system: Female Sprague Dawley CD rats, ovx
Test: 6-week ovariectomized rat model
Type: in vivo
Conditions: 2 μg/rat s.c. daily, mean ± SEM
Text: Female Sprague Dawley CD rats, ovx or sham ovx, were obtained 1 day after surgery from Taconic Farm (weight range 240-275 g). They were housed 3 or 4 rats/cage in a room on a 14/10 (light/dark) schedule and provided with food (Purina 500 rat chow) and water ad libitum. Treatment for all studies began 1 day after the animals arrival and dosed 5 or 7 days per week as indicated for 6 weeks. A group of age matched sham operated rats not receiving any treatment served as an intact, estrogen replete control group for each study. All treatments were prepared in 1% […] in normal saline at defined concentrations so that the treatment volume was 0.1 mL/100 g body weight. 17-beta estradiol was dissolved in corn oil (20 uG/mL) and delivered subcutaneously; 0.1 mL/rat. All dosages were adjusted at three week intervals according to group mean body weight measurements.
Five weeks after the initiation of treatment and one week prior to the termination of the study, each rat was evaluated for bone mineral density (BMD). The BMD's of the proximal tibiae (PT) and fourth lumbar vertabrae (L4) were measured in anesthetized, rats using a dual energy X-ray absorptiometer (Eclipse XR-26, Norland Corp. Ft. Atkins, Wis.). […] Total choleserol is determined using a Boehringer-Mannheim Hitachi 911 clinical analyzer using the Cholesterol/HP kit. […]

`C[C@]12CC[C@@H]3c4ccc(O)cc4CC[C@H]3[C@@H]1CC[C@@H]2O` [17β-estradiol] was tested, and the “BMD L4” value (following 5 weeks of treatment) was 0.169 ± 0.004 mg/cm^2 and the Cholesterol (following 6 weeks of treatment) was 95.5 ± 3.9 mg/dL.
